Data from patent US10301306B2, “Substituted dihydro-1H-pyrrolo[3,2-c]pyridin-4(5H)-ones as RIPK3 inhibitors” (BRISTOL-MYERS SQUIBB COMPANY, priority 2014, dated 2019).

Each compound was assayed against RIPK3 (Homo sapiens (Human), UniProt Q9Y572) (assay: RIPK3 HTRF Kinase Assay). Conditions: RIPK3 1 nM; HTRF probe 23 nM; 60 min at room temperature; read-out: IC50 for Inhibition of RIPK3.
RIPK3, sequence (Q9Y572 whole entry, species assumed): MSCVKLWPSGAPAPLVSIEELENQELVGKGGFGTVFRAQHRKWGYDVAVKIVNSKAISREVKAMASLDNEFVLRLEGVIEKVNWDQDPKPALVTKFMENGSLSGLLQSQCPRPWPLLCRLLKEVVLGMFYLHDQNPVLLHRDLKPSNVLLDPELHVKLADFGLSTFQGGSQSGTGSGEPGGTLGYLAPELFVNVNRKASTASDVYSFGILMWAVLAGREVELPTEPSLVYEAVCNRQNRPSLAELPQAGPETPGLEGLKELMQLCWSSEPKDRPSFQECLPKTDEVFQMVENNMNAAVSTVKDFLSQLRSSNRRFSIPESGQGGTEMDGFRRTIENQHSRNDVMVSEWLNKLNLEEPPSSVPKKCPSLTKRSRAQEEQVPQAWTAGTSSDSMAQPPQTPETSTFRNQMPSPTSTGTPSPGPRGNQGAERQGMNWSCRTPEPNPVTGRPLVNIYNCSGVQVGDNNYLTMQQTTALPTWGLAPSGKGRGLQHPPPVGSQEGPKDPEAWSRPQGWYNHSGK
Type: binding
N#Cc1cc(F)ccc1Cn1c2c(c(-c3cccc(Cl)c3Cl)c1-c1ccncc1)C(=O)NCC2 [Example 129] gave an IC50 of 31 to 100 nM.
With COc1ccc(Cn2c3c(c(-c4ccc(F)cc4)c2-c2ccncc2)C(=O)NCC3)cc1 [Example 38] the IC50 was < 30 nM.
O=C1NCCc2c1c(-c1ccc(F)cc1)c(-c1ccnc(NCCO)c1)n2Cc1ccc(C(F)(F)F)cc1F [Example 146] showed an IC50 of 31 to 100 nM.
For Cc1noc(-c2ccc(Cn3c4c(c(-c5ccc(F)cc5)c3-c3ccncc3)C(=O)NCC4)cc2)n1 [Example 13, 3-(4-Fluorophenyl)-1-(4-(3-methyl-1,2,4-oxadiazol-5-yl)benzyl)-2-(pyridin-4-yl)-6,7-dihydro-1H-pyrrolo[3,2-c]pyridin-4(5H)-one], the IC50 was < 30 nM.
In the case of O=c1[nH]ccc2c1c(-c1ccc(F)cc1)c(-c1ccncc1)n2Cc1ccc(C(F)(F)F)cc1F [Example 157, 1-(2-Fluoro-4-(trifluoromethyl)benzyl)-3-(4-fluorophenyl)-2-(pyridin-4-yl)-1H-pyrrolo[3,2-c]pyridin-4(5H)-one], the IC50 is reported as < 30 nM.
In the case of N#Cc1cc(F)ccc1Cn1c2c(c(-c3ccc(F)cc3)c1-c1ccsc1)C(=O)NCC2 [Example 25], the IC50 is reported as 100 to 15000 nM.
In the case of O=C1NCCc2c1c(-c1cccc(OC(F)(F)F)c1)c(-c1ccncc1)n2CC1CCOCC1 [Example 110], the IC50 is reported as 100 to 15000 nM.
For Cc1nc(Cn2c3c(c(-c4ccc(F)cc4)c2-c2ccncc2)C(=O)NCC3)cs1 [Example 60], the IC50 was 31 to 100 nM.
In the case of N#Cc1cc(F)ccc1Cn1c2c(c(-c3ccc(Cl)s3)c1-c1ccncc1)C(=O)NCC2 [Example 130], the IC50 is reported as < 30 nM.
For Cc1ccc(-c2c3c(n(CC4CCOCC4)c2-c2ccncc2)CCNC3=O)c(C)c1 [Example 103], the IC50 was 100 to 15000 nM.
In the case of Cc1cc(Cn2c3c(c(-c4cccc(CCC5CCCCC5)c4)c2-c2ccncc2)C(=O)NCC3)n(C)n1 [Example 181], the IC50 is reported as 100 to 15000 nM.
N#Cc1cccc(-c2c3c(n(Cc4ccc(F)cc4C#N)c2-c2ccncc2)CCNC3=O)c1 [Example 139] was tested, and the IC50 was 31 to 100 nM.
For N#Cc1ccccc1Cn1c2c(c(-c3ccc(F)cc3)c1-c1ccncc1)C(=O)NCC2 [Example 68], the IC50 was < 30 nM.
Compound Cc1cc(Cn2c3c(c(-c4cccc(-c5c(C)noc5C)c4)c2-c2ccncc2)C(=O)NCC3)n(C)n1 [Example 173] has an IC50 of 100 to 15000 nM.
In the case of O=C1NCCc2c1c(-c1ccc(F)cc1)c(-c1ccncc1)n2Cc1ccncc1 [Example 66], the IC50 is reported as < 30 nM.
For Cc1noc(C)c1Cn1c2c(c(-c3ccc(F)cc3)c1-c1ccncc1)C(=O)NCC2 [Example 50], the IC50 was 100 to 15000 nM.
Work on O=C(Nc1cc(-c2c(-c3ccc(F)cc3)c3c(n2CC2CCOCC2)CCNC3=O)ccn1)c1ccccc1 [Example 86] yielded an IC50 of 100 to 15000 nM.
Compound CCCC(=O)Nc1cc(-c2c(-c3ccc(F)cc3)c3c(n2CC2CCOCC2)CCNC3=O)ccn1 [Example 94] has an IC50 of 100 to 15000 nM.
For N#Cc1cc(F)c(Cn2c3c(c(-c4ccc(F)cc4)c2-c2ccncc2)C(=O)NCC3)c(F)c1 [Example 84], the IC50 was < 30 nM.
Nc1cc(-c2c(-c3ccc(F)cc3)c3c(n2Cc2ccc(C(F)(F)F)cc2F)CCNC3=O)ccn1 [Example 12, 2-(2-Aminopyridin-4-yl)-1-(2-fluoro-4-(trifluoromethyl)benzyl)-3-(4-fluorophenyl)-6,7-dihydro-1H-pyrrolo[3,2-c]pyridin-4(5H)-one] showed an IC50 of 100 to 15000 nM.
With CC(=O)Nc1cc(-c2c(-c3ccc(F)cc3)c3c(n2Cc2ccc(F)cc2C#N)CCNC3=O)ccn1 [Example 100] the IC50 was < 30 nM.
For O=C1NCCc2c1c(-c1ccc(F)cc1)c(-c1ccncc1)n2Cc1ccc(C(F)(F)F)cc1 [Example 33], the IC50 was 31 to 100 nM.
CS(=O)(=O)Nc1cc(-c2c(-c3ccc(F)cc3)c3c(n2CC2CCOCC2)CCNC3=O)ccn1 [Example 92] showed an IC50 of 100 to 15000 nM.
CC(c1ccccc1)n1c2c(c(-c3ccc(F)cc3)c1-c1ccncc1)C(=O)NCC2 (centres unmarked) [Example 36] was tested, and the IC50 was 100 to 15000 nM.

Same assay, conditions: read-out: IC50 for Inhibition of RIPK3
Work on Cc1ccc(Cn2c3c(c(-c4ccc(F)cc4)c2-c2ccncc2)C(=O)NCC3)cc1 [Example 45] yielded an IC50 of 31 to 100 nM.
N#Cc1cc(F)ccc1Cn1c2c(c(-c3cccnc3)c1-c1ccncc1)C(=O)NCC2 [Example 119] was tested, and the IC50 was 31 to 100 nM.
